Assay results: US20100144710A1, “Piperazine and Piperidine MGLUR5 Potentiators” (ASTRAZENECA AB, priority 2007, published 2010)

What follows are compounds tested against T1, human mGluR5d (Homo sapiens, UniProt P41594) (assay: intracellular calcium [Ca2+]i mobilization (FLIPR) functional assay in cells expressing mGluR5). Conditions: potentiators of mGluR5; 'assays described herein', assay not specified (FLIPR or IP3 turnover).
T1 construct: expressed in transfected cells
Format: cell-based
From the text: The pharmacological properties of the compounds of the invention can be analyzed using standard assays for functional activity. Examples of glutamate receptor assays are well known in the art as described in for example Aramori et al., Neuron 8:757 (1992), Tanabe et al., Neuron 8:169 (1992), Miller et al., J. Neuroscience 15: 6103 (1995), Balazs, et al., J. Neurochemistry 69:151 (1997). The methodology described in these publications is incorporated herein by reference. Conveniently, the compounds of the invention can be studied by means of an assay that measures the mobilization of intracellular calcium, [Ca^2+]i in cells expressing mGluR5.
Intracellular calcium mobilization was measured by detecting changes in fluorescence of cells loaded with the fluorescent indicator fluo-3. Fluorescent signals were measured using the FLIPR system (Molecular Devices). A two addition experiment was used that could detect compounds that either activate or antagonize the receptor.
For FLIPR analysis, cells expressing human mGluR5d were seeded on collagen coated clear bottom 96-well plates with black sides and analysis of [Ca^2+]i mobilization was done 24 hours after seeding.
FLIPR experiments were performed using a laser setting of 0.800 W and a 0.4 second CCD camera shutter speed. Each FLIPR experiment was initiated with 160 μL of buffer present in each well of the cell plate. After each addition of the compound, the fluorescence signal was sampled 50 times at 1 second intervals followed by 3 samples at 5 second intervals. Responses were measured as the peak height of the response within the sample period.
EC50 and IC50 determinations were made from data obtained from 8-point concentration response curves (CRC) performed in duplicate. Agonist CRC were generated by scaling all responses to the maximal response observed for the plate. Antagonist block of the agonist challenge was normalized to the average response of the agonist challenge in 14 control wells on the same plate.

T1 sequence (P41594 21-942 isoform P41594-3 limits assumed): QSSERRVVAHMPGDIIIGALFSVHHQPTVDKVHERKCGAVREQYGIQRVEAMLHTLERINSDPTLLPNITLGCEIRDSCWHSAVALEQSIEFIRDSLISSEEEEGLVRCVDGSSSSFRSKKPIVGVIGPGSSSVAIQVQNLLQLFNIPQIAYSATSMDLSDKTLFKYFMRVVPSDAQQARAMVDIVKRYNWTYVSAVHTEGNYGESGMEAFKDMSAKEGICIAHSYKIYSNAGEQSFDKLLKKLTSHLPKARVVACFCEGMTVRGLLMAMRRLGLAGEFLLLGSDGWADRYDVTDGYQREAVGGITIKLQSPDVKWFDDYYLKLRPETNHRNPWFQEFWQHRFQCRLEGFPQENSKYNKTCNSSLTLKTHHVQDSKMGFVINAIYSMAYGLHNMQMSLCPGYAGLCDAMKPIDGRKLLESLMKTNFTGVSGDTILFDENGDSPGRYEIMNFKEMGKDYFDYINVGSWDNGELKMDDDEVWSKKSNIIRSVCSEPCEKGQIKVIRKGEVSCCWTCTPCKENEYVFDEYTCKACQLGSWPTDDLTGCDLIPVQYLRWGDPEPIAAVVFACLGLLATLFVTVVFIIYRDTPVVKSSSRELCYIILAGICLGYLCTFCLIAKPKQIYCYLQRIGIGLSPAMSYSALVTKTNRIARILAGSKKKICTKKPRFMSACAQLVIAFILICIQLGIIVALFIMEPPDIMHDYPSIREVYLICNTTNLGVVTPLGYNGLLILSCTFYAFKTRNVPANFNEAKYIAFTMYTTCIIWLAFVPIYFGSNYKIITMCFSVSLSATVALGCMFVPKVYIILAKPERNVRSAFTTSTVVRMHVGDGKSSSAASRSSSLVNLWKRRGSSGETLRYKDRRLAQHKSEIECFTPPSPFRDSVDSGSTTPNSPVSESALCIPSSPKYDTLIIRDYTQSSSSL

**Q.** Which EC50 does the source give for CCCCOc1ccc(CC(=O)N2CCN(c3ncccc3C#N)CC2)cc1 [Compound 1, 2-{4-[2-(4-Butoxy-phenyl)-acetyl]-piperazin-l-yl}-nicotinonitrile] here?
**A.** Its EC50 is 5.1 µM.

**Q.** Which EC50 does the source give for N#Cc1cccnc1N1CCN(C(=O)COc2ccccc2)CC1 [Compound 12, 2-[4-(2-Phenoxy-acetyl)-piperazin-1-yl]-nicotinonitrile] here?
**A.** Its EC50 is 3.5 µM.

**Q.** With CCCOc1ccc(CC(=O)N2CCN(c3ncccc3C#N)CC2)cc1 [Compound 16, 2-{4-[2-(4-Propoxy-phenyl)-acetyl]-piperazin-1-yl}-nicotinonitrile] as the compound, how does the EC50 read?
**A.** Its EC50 is 2.8 µM.

**Q.** CCCCc1ccc(N(CC(=O)N2CCN(c3nccnc3C#N)CC2)S(C)(=O)=O)cc1 [Compound 44, N-(4-Butyl-phenyl)-N-{2-(3′-cyano-2,3,5,6-tetrahydro-[1,2]bipyrazinyl-4-yl)-2-oxo-ethyl]-methanesulfonamide] was tested. Which EC50 did it give?
**A.** The EC50 was 5.6 µM.

**Q.** Which EC50 does the source give for N#Cc1cccnc1N1CCN(C(=O)Cc2ccc(OCc3ccccn3)cc2)CC1 [Compound 45, 2-(4-{2-[4′-(Pyridin-2-ylmethoxy)-phenyl]-acetyl}-piperazin-1-yl)-nicotinonitrile] here?
**A.** Its EC50 is 3.4 µM.
